Measured values taken from patent US9688627B2, “Lactam compounds as EP4 receptor-selective agonists for use in the treatment of EP4-mediated diseases and conditions” (Cayman Chemical Company, Inc., priority 2013, dated 2017).

Columns and labels:
[1] = biological target: T1, rat EP4 receptor (Rattus norvegicus, UniProt P43114); test: SEAP activity assay on EP4 STEP plate; format: cell-based; settings: SEAP luminescence, 6-8 hours of stimulation; read-out: STEP cell functional assay EC50 SEAP/EP4
T1 construct: cells seeded on STEP plates
T1 sequence (P43114 whole entry): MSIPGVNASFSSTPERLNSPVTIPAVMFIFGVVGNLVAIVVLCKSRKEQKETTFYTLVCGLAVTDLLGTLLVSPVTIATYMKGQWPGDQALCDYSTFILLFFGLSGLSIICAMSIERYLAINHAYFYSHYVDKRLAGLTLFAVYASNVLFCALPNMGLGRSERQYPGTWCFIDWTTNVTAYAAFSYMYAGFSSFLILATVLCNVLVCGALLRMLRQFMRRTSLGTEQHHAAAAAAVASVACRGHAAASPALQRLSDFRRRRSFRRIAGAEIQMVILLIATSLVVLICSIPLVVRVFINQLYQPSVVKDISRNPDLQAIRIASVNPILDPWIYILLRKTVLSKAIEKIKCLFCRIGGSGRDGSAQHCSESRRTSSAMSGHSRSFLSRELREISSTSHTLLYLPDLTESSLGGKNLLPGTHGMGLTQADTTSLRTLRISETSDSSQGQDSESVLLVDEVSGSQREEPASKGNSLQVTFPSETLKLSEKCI
From the text: (§1) 2. […] In addition each concentration had triplicates. […] 4. […] Cover the plate with the lid. […] 6. […] 7. […] 8.

[2] = biological target: T2, rat EP2 receptor (Rattus norvegicus, UniProt Q62928); test: SEAP activity assay on EP2 STEP plate; format: cell-based; settings: SEAP luminescence, 6-8 hours of stimulation; read-out: STEP cell functional assay EC50 SEAP/EP2
T2 construct: cells seeded on STEP plates
T2 sequence (Q62928 whole entry): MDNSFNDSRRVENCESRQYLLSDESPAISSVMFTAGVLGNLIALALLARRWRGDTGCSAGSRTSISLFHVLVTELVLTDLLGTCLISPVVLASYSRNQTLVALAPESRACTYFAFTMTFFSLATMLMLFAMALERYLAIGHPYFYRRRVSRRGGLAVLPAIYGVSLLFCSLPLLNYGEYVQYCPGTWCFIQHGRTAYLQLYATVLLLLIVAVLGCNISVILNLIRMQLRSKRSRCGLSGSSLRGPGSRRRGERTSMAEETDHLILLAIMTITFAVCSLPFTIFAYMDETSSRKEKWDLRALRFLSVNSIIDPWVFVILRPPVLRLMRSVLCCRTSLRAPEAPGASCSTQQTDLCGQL
From the text: as §1

Compound `CCC#CCC(C)[C@@H](O)/C=C/[C@H]1CCC(=O)N1CCCCCCC(=O)O` (mixture of isomers) [Example 2D, 7-((2R)-2-((3R,4R/S,E)-3-hydroxy-4-methylnon-1-en-6-yn-1-yl)-5-oxopyrrolidin-1-yl)heptanoic acid] has an EC50 [1] of 0.145 nM and an EC50 [2] of 1420 nM.
Work on `CCCC#CCC(C)[C@H](O)/C=C/[C@H]1CCC(=O)N1CCCCCCC(=O)OC` (mixture of isomers) [Example 3A, methyl 7-((2R)-2-((3S,4R/S,E)-3-hydroxy-4-methyldec-1-en-6-yn-1-yl)-5-oxopyrrolidin-1-yl)heptanoate] yielded an EC50 [1] of 8.64 nM and an EC50 [2] of 2490 nM.
`CCCC#CCC(C)[C@@H](O)/C=C/[C@H]1CCC(=O)N1CCCCCCC(=O)OC` (mixture of isomers) [Example 3B, methyl 7-((2R)-2-((3R,4R/S,E)-3-hydroxy-4-methyldec-1-en-6-yn-1-yl)-5-oxopyrrolidin-1-yl)heptanoate] was tested, and the EC50 [1] was 223 nM and the EC50 [2] was > 10000 nM.
Work on `CCCC#CCC(C)[C@H](O)/C=C/[C@H]1CCC(=O)N1CCCCCCC(=O)O` (mixture of isomers) [Example 3C, 7-((2R)-2-((3S,4R/S,E)-3-hydroxy-4-methyldec-1-en-6-yn-1-yl)-5-oxopyrrolidin-1-yl)heptanoic acid] yielded an EC50 [1] of 0.085 nM and an EC50 [2] of 2260 nM.
For `CCCC#CCC(C)[C@@H](O)/C=C/[C@H]1CCC(=O)N1CCCCCCC(=O)O` (mixture of isomers) [Example 3D, 7-((2R)-2-((3R,4R/S,E)-3-hydroxy-4-methyldec-1-en-6-yn-1-yl)-5-oxopyrrolidin-1-yl)heptanoic acid], the EC50 [1] was 29 nM and the EC50 [2] was > 10000 nM.
With `CC(CC#Cc1ccccc1)[C@H](O)/C=C/[C@H]1CCC(=O)N1CCCCCCC(=O)O` (mixture of isomers) [Example 4C, 7-((2R)-2-((3S,4R/S,E)-3-hydroxy-4-methyl-7-phenylhept-1-en-6-yn-1-yl)-5-oxopyrrolidin-1-yl)heptanoic acid] the EC50 [1] was 2.49 nM and the EC50 [2] was 830 nM.
With `CC#CCC(C)[C@@H](O)/C=C/[C@H]1CCC(=O)N1CCc1ccc(C(=O)OC)cc1` (mixture of isomers) [Example 8B, methyl 4-(2-((2R)-2-((3R,4R/S,E)-3-hydroxy-4-methyloct-1-en-6-yn-1-yl)-5-oxopyrrolidin-1-yl)ethyl)benzoate] the EC50 [1] was 1640 nM.
`CCC#C[C@@H](O)/C=C/[C@H]1CCC(=O)N1CCCCCCC(=O)OC` (single isomer, unassigned) [Example 6B] was tested, and the EC50 [2] was > 2000 nM.
`CCC#CC[C@@H](C)[C@H](O)/C=C/[C@H]1CCC(=O)N1CCCCCCC(=O)O` [Example 2F, 7-((R)-2-((3S,4R,E)-3-hydroxy-4-methylnon-1-en-6-yn-1-yl)-5-oxopyrrolidin-1-yl)heptanoic acid] showed an EC50 [1] of 1.06 ± 0.11 nM.
`O=C(O)CCCCCCN1C(=O)CC[C@@H]1/C=C/[C@@H](O)CCC#Cc1ccccc1` [Example 5C, 7-((R)-2-((3S,E)-3-hydroxy-7-phenylhept-1-en-6-yn-1-yl)-5-oxopyrrolidin-1-yl)heptanoic acid] was tested, and the EC50 [1] was 111 nM.
`O=C(O)CCCCCCN1C(=O)CC[C@@H]1/C=C/[C@H](O)CCC#Cc1ccccc1` [Example 5D, 7-((R)-2-((3R,E)-3-hydroxy-7-phenylhept-1-en-6-yn-1-yl)-5-oxopyrrolidin-1-yl)heptanoic acid] showed an EC50 [1] of 46.8 nM.
`CCC#C[C@H](O)/C=C/[C@H]1CCC(=O)N1CCCCCCC(=O)O` [Example 6C, 7-((R)-2-((R,E)-3-hydroxyhept-1-en-4-yn-1-yl)-5-oxopyrrolidin-1-yl)heptanoic acid] was tested, and the EC50 [1] was 4.73 nM.
In the case of `CCC#C[C@@H](O)/C=C/[C@H]1CCC(=O)N1CCCCCCC(=O)O` [Example 6D, 7-((R)-2-((S,E)-3-hydroxyhept-1-en-4-yn-1-yl)-5-oxopyrrolidin-1-yl)heptanoic acid], the EC50 [1] is reported as 4.79 nM.
In the case of `CCC#CCC(C)[C@@H](O)/C=C/[C@H]1CCC(=O)N1CC#Cc1ccc(C(=O)O)s1` (stereo partly drawn) [Example 13D, 5-(3-((2R)-2-((3R,E)-3-hydroxy-4-methylnon-1-en-6-yn-1-yl)-5-oxopyrrolidin-1-yl)prop-1-yn-1-yl)thiophene-2-carboxylic acid], the EC50 [2] is reported as > 10000 nM.
